Assay results published in PubChem BioAssay AID330 (DTP/NCI, 2004).
Several values for one entry are separate records, joined by “and”; a condition that tells them apart may be missing. Equal values may be shown once. Toxic doses and inconclusive results are not listed.

System: P388 leukemia ip, CD2F1 mice, survival T/C
Assay: NCI In Vivo Anticancer Drug Screen. Data for tumor model P388 Leukemia (intraperitoneal) in CD2F1 (CDF1) mice
Settings: endpoint: median survival time, higher = longer survival
How it was run: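 Mice carrying the transplanted tumor received test compound or vehicle. Survival was recorded in each group, and the value is the treated-group measurement divided by that of the vehicle-treated control group.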

[1] = dose: 50.0 mg/kg/injection, schedule: Q01DX009 (ip), vehicle: saline
[2] = dose: 200.0 mg/kg/injection, schedule: Q01DX009 (ip), vehicle: saline
[3] = dose: 50.0 mg/kg/injection, schedule: Q01DX005 (ip), vehicle: Klucel (hydroxypropylcellulose) (HPC)
[4] = dose: 100.0 mg/kg/injection, schedule: Q01DX005 (ip), vehicle: Klucel (hydroxypropylcellulose) (HPC)
[5] = dose: 200.0 mg/kg/injection, schedule: Q01DX005 (ip), vehicle: Klucel (hydroxypropylcellulose) (HPC)
[6] = dose: 12.5 mg/kg/injection, schedule: Q01DX009 (ip), vehicle: saline with Tween-80
[7] = dose: 25.0 mg/kg/injection, schedule: Q01DX009 (ip), vehicle: saline with Tween-80
[8] = dose: 50.0 mg/kg/injection, schedule: Q01DX009 (ip), vehicle: saline with Tween-80
[9] = dose: 50.0 mg/kg/injection, schedule: Q01DX009 (ip), vehicle: suspension in saline

## O=C1C2C3C=CC(O3)C2C(=O)N1CCN1CCCCC1 (stereo not drawn)
dose: 50.0 mg/kg/injection, schedule: Q01DX005 (ip), vehicle: other
  T/C: 97 % of control
dose: 100.0 mg/kg/injection, schedule: Q01DX005 (ip), vehicle: other
  T/C: 91 % of control

## CCC(=O)C1C(=O)CC(=O)C(C)C1c1ccccc1OC (stereo not drawn)
dose: 50.0 mg/kg/injection, schedule: Q01DX005 (ip), vehicle: saline with Tween-80
  T/C: 92 % of control
dose: 100.0 mg/kg/injection, schedule: Q01DX005 (ip), vehicle: saline with Tween-80
  T/C: 90 % of control
dose: 200.0 mg/kg/injection, schedule: Q01DX005 (ip), vehicle: saline with Tween-80
  T/C: 87 % of control

## C(=N\NC1=NCCN1)/c1ccc(-c2cn3cc(/C=N/NC4=NCCN4)ccc3n2)cc1
dose: 60.0 mg/kg/injection, schedule: Q01DX005 (ip), vehicle: saline with Tween-80
  T/C: 112 % of control

## COC(=O)c1ccc(OC)c(OC)c1-c1c(C(=O)OC)c(C(=O)OC)c2n1CCc1cc3c(cc1-2)OCO3
dose: 50.0 mg/kg/injection, schedule: Q04DX002 (ip), vehicle: saline with Tween-80
  T/C: 103 % of control
dose: 100.0 mg/kg/injection, schedule: Q04DX002 (ip), vehicle: saline with Tween-80
  T/C: 100 % of control
dose: 200.0 mg/kg/injection, schedule: Q04DX002 (ip), vehicle: saline with Tween-80
  T/C: 90 % of control

## Oc1ccc(Cl)cc1C1CCCCC1
[1]
  T/C: 100 % of control
dose: 100.0 mg/kg/injection, schedule: Q01DX009 (ip), vehicle: saline
  T/C: 100 % of control
[2]
  T/C: 98 % of control

## COc1ccc(Cc2cc3c(cc2OCC(=O)N(C)C)OCO3)cc1
[3]
  T/C: 103 % of control
[4]
  T/C: 98 % of control
[5]
  T/C: 96 % of control

## C[CH2][Pb]([Br])([CH2]C)[CH2]C
dose: 3.12 mg/kg/injection, schedule: Q01DX009 (ip), vehicle: saline with Tween-80
  T/C: 105 % of control and 97 % of control
dose: 6.25 mg/kg/injection, schedule: Q01DX009 (ip), vehicle: saline with Tween-80
  T/C: 103 % of control and 107 % of control
[6]
  T/C: 113 % of control and 114 % of control
[7]
  T/C: 106 % of control
[8]
  T/C: 107 % of control

## Cc1ccc(NC(=O)Oc2cc(C)c(C)cc2Cl)c([N+](=O)[O-])c1
[8]
  T/C: 107 % of control
dose: 100.0 mg/kg/injection, schedule: Q01DX009 (ip), vehicle: saline with Tween-80
  T/C: 104 % of control
dose: 200.0 mg/kg/injection, schedule: Q01DX009 (ip), vehicle: saline with Tween-80
  T/C: 112 % of control

## Cc1c(C)c2c(=O)c3ccccc3[nH]c2c2ccccc12
[3]
  T/C: 108 % of control
[4]
  T/C: 98 % of control
[5]
  T/C: 109 % of control

## c1ccc(-[n+]2ccc(-c3cc[n+](-c4ccccc4)cc3)cc2)cc1
dose: 100.0 mg/kg/injection, schedule: Q04DX002 (ip), vehicle: Klucel (hydroxypropylcellulose) (HPC)
  T/C: 97 % of control

## O=C1CCSC(=S)N1c1ccc(C(F)(F)F)cc1
[9]
  T/C: 90 % of control
dose: 100.0 mg/kg/injection, schedule: Q01DX009 (ip), vehicle: suspension in saline
  T/C: 97 % of control
dose: 200.0 mg/kg/injection, schedule: Q01DX009 (ip), vehicle: suspension in saline
  T/C: 94 % of control

## CC1CCC(C(C)C)C2(C1)OC(CCl)CS2 (stereo not drawn)
[6]
  T/C: 106 % of control
[7]
  T/C: 114 % of control
[8]
  T/C: 114 % of control and 124 % of control

## O=C(O)c1cc2cc([N+](=O)[O-])ccc2[se]1
dose: 12.5 mg/kg/injection, schedule: Q01DX009 (ip), vehicle: suspension in saline
  T/C: 100 % of control
dose: 25.0 mg/kg/injection, schedule: Q01DX009 (ip), vehicle: suspension in saline
  T/C: 101 % of control
[1]
  T/C: 86 % of control
[9]
  T/C: 102 % of control
[2]
  T/C: 100 % of control

## c1nnc(NCNc2nncs2)s1
dose: 100.0 mg/kg/injection, schedule: Q04DX003 (ip), vehicle: saline
  T/C: 240 % of control
dose: 200.0 mg/kg/injection, schedule: Q04DX003 (ip), vehicle: saline
  T/C: 109 % of control

## Cn1cnc([N+](=O)[O-])c1Sc1ncnc2nc[nH]c12
dose: 216.0 mg/kg/injection, schedule: Q01DX001 (ip), vehicle: saline with Tween-80
  T/C: 106 % of control and 122 % of control
dose: 360.0 mg/kg/injection, schedule: Q01DX001 (ip), vehicle: saline with Tween-80
  T/C: 118 % of control
dose: 600.0 mg/kg/injection, schedule: Q01DX001 (ip), vehicle: saline with Tween-80
  T/C: 108 % of control and 79 % of control
